Test results reported in patent EP1614683B1, “Indazole compounds and pharmaceutical compositions for inhibiting protein kinases, and methods for their use” (priority 1999, dated 2001).
Where two headings read alike, the source gives them in different places.

Columns and labels:
[1] = tested on: human umbilical vein endothelial cells (HUVEC); assay: HUVEC proliferation assay (VEGF-stimulated, MTT); assay type: cell-based; details: Homo sapiens, HUVEC, read-out: HUVEC IC50
CDK2/Cyclin A complex = CDK2/Cyclin A complex (Homo sapiens, UniProt P24941); assay: CDK2/Cyclin A assay ([32P]ATP incorporation into Rb fragment); assay type: biochemical; details: Table 1; read-out: CDK2 * (Ki, cell in µM)
LCK tyrosine kinase = LCK tyrosine kinase (Homo sapiens, UniProt P06239, C224D/P223M); assay: LCK spectrophotometric assay; assay type: biochemical
Sequence of LCK tyrosine kinase (P06239 223-509 P223M/C224D): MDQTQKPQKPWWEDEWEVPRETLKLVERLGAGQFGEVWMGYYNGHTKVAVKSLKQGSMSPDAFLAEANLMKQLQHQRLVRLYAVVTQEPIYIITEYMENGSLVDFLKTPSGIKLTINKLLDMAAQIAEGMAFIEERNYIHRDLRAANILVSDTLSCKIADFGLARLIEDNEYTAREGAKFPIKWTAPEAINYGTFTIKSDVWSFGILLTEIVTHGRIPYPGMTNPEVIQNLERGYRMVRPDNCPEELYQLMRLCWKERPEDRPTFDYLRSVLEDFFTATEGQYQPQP
Protocol: The spectrophotometric assay was carried out as described above for VEGF-R2, except for the following changes in concentration: LCK = 60 nM, MgCl2 = 0 mM, poly(E4Y1) = 20 mM.

CDK4/Cyclin D3 complex [2] = molecular target: T1, CDK4/Cyclin D3 complex (Homo sapiens, UniProt P11802); details: read-out: CDK4 * (Ki, cell in µM); Table 1
T1 sequence (P11802 whole entry, the tested form may be a part): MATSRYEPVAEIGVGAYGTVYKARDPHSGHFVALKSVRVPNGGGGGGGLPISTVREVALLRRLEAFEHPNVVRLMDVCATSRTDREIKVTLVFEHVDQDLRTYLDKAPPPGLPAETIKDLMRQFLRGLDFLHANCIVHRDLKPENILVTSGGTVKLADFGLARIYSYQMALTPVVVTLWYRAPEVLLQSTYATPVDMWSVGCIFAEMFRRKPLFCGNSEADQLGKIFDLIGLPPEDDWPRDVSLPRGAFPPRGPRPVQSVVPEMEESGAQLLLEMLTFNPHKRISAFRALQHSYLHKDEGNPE
T1 sequence (P30281 whole entry partner, the tested form may be a part): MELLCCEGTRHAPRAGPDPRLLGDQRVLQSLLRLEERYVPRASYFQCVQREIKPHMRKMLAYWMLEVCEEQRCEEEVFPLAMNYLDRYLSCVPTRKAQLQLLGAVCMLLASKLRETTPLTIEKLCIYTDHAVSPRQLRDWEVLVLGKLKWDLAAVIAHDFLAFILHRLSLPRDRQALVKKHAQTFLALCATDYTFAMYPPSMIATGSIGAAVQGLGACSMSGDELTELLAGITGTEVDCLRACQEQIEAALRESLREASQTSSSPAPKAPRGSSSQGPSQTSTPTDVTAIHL

[3] = molecular target: T2, phosphorylated Tie-2 (aa 775-1122) (Homo sapiens, UniProt Q02763); assay: TIE-2 spectrophotometric assay; assay type: biochemical; details: read-out: % Inhibition Tie2-P, compound tested at 10 µM
T2 construct: 4 to 12 nM phosphorylated Tie-2 (aa 775-1122); made in house; host or cells: insect cells
T2 sequence (Q02763 775-1122): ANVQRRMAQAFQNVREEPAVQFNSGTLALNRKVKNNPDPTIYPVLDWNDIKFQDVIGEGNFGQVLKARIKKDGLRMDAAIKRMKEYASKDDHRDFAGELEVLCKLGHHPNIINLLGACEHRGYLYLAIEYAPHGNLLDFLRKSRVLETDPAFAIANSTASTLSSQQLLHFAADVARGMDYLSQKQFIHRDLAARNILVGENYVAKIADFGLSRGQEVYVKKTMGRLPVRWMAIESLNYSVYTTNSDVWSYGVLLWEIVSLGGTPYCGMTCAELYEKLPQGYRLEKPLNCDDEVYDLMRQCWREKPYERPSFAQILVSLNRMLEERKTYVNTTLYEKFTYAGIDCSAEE
Method in brief: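 Human phosphorylated Tie-2 kinase activity was measured spectrophotometrically by coupling ADP formation, from phosphoryl transfer to poly(Glu4 Tyr), to NADH oxidation via pyruvate kinase and lactate dehydrogenase. Absorbance loss at 340 nm was read on a Beckman DU650. Reactions held 1 mM phosphoenolpyruvate, 0.24 mM NADH, 40 mM MgCl2, 5 mM DTT, 0.5 mM ATP, and 15 units/mL each of PK and LDH in 100 mM HEPES, pH 7.5.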

human FAK (FAKcd409) = molecular target: T3, human FAK (FAKcd409) (Homo sapiens, UniProt Q05397, P410T); assay: FAK fluorescence polarization assay; assay type: biochemical; details: read-out: % Inhibition FAK, compound tested at 10 µM
T3 construct: comprises residues methionine 409 to glutamate 689; made in house; host or cells: baculovirus vector expression system (insect cells)
T3 sequence (Q05397 409-689 P410T): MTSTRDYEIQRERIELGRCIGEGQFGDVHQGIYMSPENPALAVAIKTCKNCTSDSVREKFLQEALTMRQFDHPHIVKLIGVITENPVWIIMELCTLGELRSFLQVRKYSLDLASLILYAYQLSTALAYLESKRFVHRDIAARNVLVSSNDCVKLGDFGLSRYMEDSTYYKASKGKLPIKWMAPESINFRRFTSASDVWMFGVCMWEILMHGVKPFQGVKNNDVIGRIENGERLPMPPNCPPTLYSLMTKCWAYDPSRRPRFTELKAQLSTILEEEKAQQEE
Protocol: FAK Construct for Assay. The catalytic domain of human FAK (FAKcd409) was expressed using the baculovirus vector expression system. […] The protein was purified using classical chromatography techniques.
FAK HTS utilized the fluorescence polarization assay provided by LJL Biosystems. The kinase reaction contained: 100mM Hepes pH 7.5, 10mM MgCl2, 1mM DTT, 1mM ATP, and 1mg/ml poly Glu-Tyr (4: 1). The reaction is initiated by the addition of 5nM FAKcd409. The reaction is terminated by the addition of EDTA followed by addition of fluor-labelled peptide and anti-phosphotyrosine antibody, both provided by LJL Biosystems. Inhibition results are read on a Analyst (LJL) detector.

[4] = molecular target: T4, truncated catalytic subunit (gamma subunit) of phosphorylase kinase (amino acids 1-298) (Oryctolagus cuniculus, UniProt P00518); assay: Phosphorylase kinase assay; assay type: biochemical; details: 10 µM of compound; phosphoryl transfer from ATP to phosphorylase b
T4 construct: (gamma subunit) of phosphorylase kinase (amino acids 1-298); made in house
T4 sequence (P00518 2-299 limits assumed): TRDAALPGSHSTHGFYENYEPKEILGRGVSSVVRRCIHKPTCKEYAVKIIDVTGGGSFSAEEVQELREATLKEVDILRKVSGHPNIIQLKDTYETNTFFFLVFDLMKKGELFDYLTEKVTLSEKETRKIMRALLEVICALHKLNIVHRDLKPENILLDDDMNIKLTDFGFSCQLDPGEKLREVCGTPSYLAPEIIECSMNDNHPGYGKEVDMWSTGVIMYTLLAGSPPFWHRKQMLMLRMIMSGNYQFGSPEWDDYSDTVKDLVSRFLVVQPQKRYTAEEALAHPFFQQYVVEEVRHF
Protocol: In the assay, the purified catalytic subunit is used to phosphorylate phosphorylase b using radiolabled ATP. Briefly, 1.5 mg/ml of phosphorylase b is incubated with 10 nM phosphorylase kinase in 10 mM MgCl2, 50 mM Hepes pH 7.4, at 37 °C. […] The reaction was terminated and proteins were precipitated by the addition of TCA to 10% final concentration. […] The filter plate was then extensively washed with 20% TCA, and dried. Scintilation fluid was then added to the plate and incorporated radiolabel was counted on a Wallac microbeta counter.

CDK4/Cyclin D3 complex [5] = molecular target: T1, CDK4/Cyclin D3 complex; assay: biochemical; details: read-out: CDK4* (% inhibition @ 5 µM)
[6] = molecular target: unphosphorylated VEGF-R2Δ50 (Homo sapiens, UniProt P35968, DEL940-989/E990V); assay: biochemical; details: read-out: FLVK* (% inhibition)
Sequence of unphosphorylated VEGF-R2Δ50 (P35968 with tags, fused parts or gaps DEL940-989/E990V limits assumed): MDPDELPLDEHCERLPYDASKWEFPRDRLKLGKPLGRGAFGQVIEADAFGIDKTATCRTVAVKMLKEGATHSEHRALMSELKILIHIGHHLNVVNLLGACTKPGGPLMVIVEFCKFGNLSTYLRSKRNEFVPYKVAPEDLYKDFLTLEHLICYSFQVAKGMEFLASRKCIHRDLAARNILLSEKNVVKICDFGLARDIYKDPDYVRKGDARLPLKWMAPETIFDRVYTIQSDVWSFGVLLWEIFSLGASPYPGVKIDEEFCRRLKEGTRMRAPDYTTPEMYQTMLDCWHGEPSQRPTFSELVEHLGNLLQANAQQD

human CHK1 (FL-CHK1) = molecular target: T5, human CHK1 (FL-CHK1) (Homo sapiens, UniProt O14757); assay: CHK1 coupled spectrophotometric assay; assay type: biochemical; details: read-out: CHK1* (% inhibition)
T5 construct: C-terminally His-tagged full-length human CHK1 (FL-CHK1) was expressed using the baculovirus/insect cell system; made in house; host or cells: baculovirus/insect cell system
T5 sequence (O14757 1-476): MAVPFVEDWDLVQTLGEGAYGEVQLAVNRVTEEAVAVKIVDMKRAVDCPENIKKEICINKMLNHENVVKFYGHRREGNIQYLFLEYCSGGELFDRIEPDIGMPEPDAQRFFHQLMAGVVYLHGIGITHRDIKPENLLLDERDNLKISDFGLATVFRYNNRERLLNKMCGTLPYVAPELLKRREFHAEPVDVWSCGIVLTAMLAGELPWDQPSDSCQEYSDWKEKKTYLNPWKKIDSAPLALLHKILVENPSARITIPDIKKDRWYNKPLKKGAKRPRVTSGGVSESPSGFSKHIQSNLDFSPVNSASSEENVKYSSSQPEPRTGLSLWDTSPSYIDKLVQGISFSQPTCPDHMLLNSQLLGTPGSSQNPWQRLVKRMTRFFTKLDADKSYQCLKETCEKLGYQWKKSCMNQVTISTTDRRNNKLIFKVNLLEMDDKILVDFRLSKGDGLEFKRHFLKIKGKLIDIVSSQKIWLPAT
Method in brief: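 His-tagged full-length human CHK1 from baculovirus/insect cells, 10 nM, phosphorylating Syntide-2. ADP formation coupled via PK/LDH with PEP to NADH oxidation, followed as absorbance decrease at 340 nm. Ki from initial rates at varying compound concentrations.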

human FGF-R1 = human FGF-R1 (Homo sapiens, UniProt P11362, C488A/C584S/L457V); assay: FGF-R spectrophotometric assay; assay type: biochemical; details: read-out: FGF* (% inhibition)
Sequence of human FGF-R1 (P11362 456-766 L457V/C488A/C584S): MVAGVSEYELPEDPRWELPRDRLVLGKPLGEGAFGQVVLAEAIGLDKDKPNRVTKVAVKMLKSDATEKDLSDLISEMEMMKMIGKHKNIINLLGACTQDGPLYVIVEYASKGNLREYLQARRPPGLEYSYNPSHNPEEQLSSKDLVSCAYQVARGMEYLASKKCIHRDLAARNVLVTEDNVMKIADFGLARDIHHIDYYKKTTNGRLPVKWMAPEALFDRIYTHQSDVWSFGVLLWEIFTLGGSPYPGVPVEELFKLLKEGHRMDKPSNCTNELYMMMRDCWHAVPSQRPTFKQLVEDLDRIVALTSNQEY
Protocol: The spectrophotometric assay was carried out as described above for VEGF-R2, except for the following changes in concentration: FGF-R = 50 nM, ATP = 2 mM, and poly(E4Y1) =15 mM.

HCT-116 = HCT-116 cell assay (Table 2); assay type: cell-based; details: Homo sapiens
[7] = Isomer stability under assay conditions; assay type: physicochemical; details: Z-isomer, isolated pure
Protocol: Reference Example 33(h) was prepared in the same reaction as Reference Example 33(d). […] Found: C (66.36), H (4.08), N (11.49), S (6.55).

[8] = Table 1, compound concentration 1 µM, read-out: Lck-P* (% inhibition)

C(=C\c1n[nH]c2cc(Oc3ccccc3)ccc12)/c1ccccc1 [8(a), 3-(E-styryl)-6-phenoxy-1H-indazole]
IC50 [1]: > 1 µM | Ki (CDK2/Cyclin A complex): > 100 µM | inhibition at 1 µM (LCK tyrosine kinase; [8]): 43% | Ki (CDK4/Cyclin D3 complex [2]): > 100 µM | inhibition at 10 µM [3]: 55% | inhibition at 10 µM (human FAK (FAKcd409)): 3%

C(=C\c1n[nH]c2cc(-c3ccccc3)ccc12)/c1ccccc1 [Reference Example 27(a), 6-phenyl-3-E-styryl-1H-indazole]
inhibition at 10 µM [4]: 37% | inhibition at 5 µM (CDK4/Cyclin D3 complex [5]): 28% | inhibition at 1 µM [6]: 71%

CNC(=O)c1ccc2[nH]c(-c3n[nH]c4cc(-c5ccc(O)cc5OC)ccc34)nc2c1 [Reference Example 25(g), 3-(5-methylcarbamoyl-1H-benzoimidazol-2-yl)-6-(2-methoxy-4-hydroxyphenyl)-1H-indazole]
inhibition at 1 µM (LCK tyrosine kinase; read-out: Lck* (% inhibition)): 76% | inhibition at 1 µM (human CHK1 (FL-CHK1)): 21% | inhibition at 1 µM (human FGF-R1): 82% | IC50 (HCT-116): 2 µM

Oc1ccc(-c2ccc3c(-c4nc5ccccc5[nH]4)n[nH]c3c2)c(Oc2ccccc2)c1 [24(g), 3-1H-Benzoimidazol-2-yl-6-(2-phenoxy-4-hydroxyphenyl)-1H-indazole]
IC50 (HCT-116): > 5 µM

O=C(Nc1cccc(Cl)c1)c1ccccc1Sc1ccc2c(/C=C\c3ccccn3)n[nH]c2c1 [Reference Example 33(h), 6-[2-(3-chlorophenylcarbamoyl)phenysulfanyl]-3-Z-[2-(pyridin-2-yl)ethenyl]-1H-indazole]
isomerization under assay conditions [7]: found to isomerize to Reference Example 33(d) under assay conditions

COc1cc(O)ccc1-c1ccc2c(-c3nc4ccc(S(N)(=O)=O)cc4[nH]3)n[nH]c2c1 [Reference Example 25(i), 3-(5-Aminosulfonyl-1H-benzoimidaxol-2-yl)-6-(2-methoxy-4-hydroxy-phenyl)-1H-indazole]
IC50 (HCT-116): > 5 µM

C(=C\c1n[nH]c2cc(Sc3ccccc3)ccc12)/c1ccccc1 [8(c), 3-(E-styryl)-6-phenylsulfanyl-1H-indazole]
IC50 ([1]; Table 1): 0.28 µM | Ki (CDK2/Cyclin A complex): > 100 µM | inhibition at 1 µM (LCK tyrosine kinase; [8]): 34% | Ki (CDK4/Cyclin D3 complex [2]): > 100 µM | inhibition at 10 µM [3]: 31% | inhibition at 10 µM (human FAK (FAKcd409)): 15%
